In patent US20110143948A1, “MOLECULAR SIGNATURES AND BIOMARKERS ASSOCIATED WITH MELANOMA AND METHODS OF USE THEREOF” (priority 2008, published 2011):

Test system: ncRNAs (SEQ ID NO 28-89)
Test: ncRNA arrays of melanocytes, keratinocytes, normal skin, melanoma cell lines and patient samples
Design: species or system human
Conditions: for ncRNA array expression, patient 2: melanoma patient 2 sample compared to normal skin; for ncRNA array expression, patient 3: melanoma patient 3 sample compared to normal skin; for ncRNA array expression, patient 4: melanoma patient 4 sample compared to normal skin; for ncRNA array expression, patient 5: melanoma patient 5 sample compared to normal skin; for ncRNA array expression, patient 6: melanoma patient 6 sample compared to normal skin; for ncRNA array expression, patient 7: melanoma patient 7 sample compared to normal skin; for ncRNA array expression, patient 8: melanoma patient 8 sample compared to normal skin; for ncRNA array expression, patient 9: melanoma patient 9 sample compared to normal skin; for ncRNA array expression, patient 10: melanoma patient 10 sample compared to normal skin; for ncRNA array expression, patient 19: melanoma patient 19 sample compared to normal skin; for ncRNA array expression, patient 20: melanoma patient 20 sample compared to normal skin; for ncRNA array expression, patient 21: melanoma patient 21 sample compared to normal skin; for ncRNA array expression, patient 22: melanoma patient 22 sample compared to normal skin; for ncRNA array expression, patient 23: melanoma patient 23 sample compared to normal skin; for ncRNA array expression, patient 24: melanoma patient 24 sample compared to normal skin; for ncRNA array expression, patient 25: melanoma patient 25 sample compared to normal skin; for ncRNA array expression, patient 26: melanoma patient 26 sample compared to normal skin; for ncRNA array expression, patient 27: melanoma patient 27 sample compared to normal skin; for ncRNA array expression, patient 28: melanoma patient 28 sample compared to normal skin; for ncRNA array expression, patient 29: melanoma patient 29 sample compared to normal skin; for ncRNA array expression, patient 30: melanoma patient 30 sample compared to normal skin
Method: An ncRNA array platform that contains over 10,000 putative (>200 nt) ncRNAs including most of the known ncRNAs in mouse and human was conducted to evaluate ncRNAs within melanoma. Lack of coding potential was estimated by an algorithm that scores various characteristics of protein-coding genes, including open reading frame length, synonymous/non-synonymous base substitution rates and similarity to known proteins. These arrays provide the first generation of tools designed to analyze the dynamic expression of a large subset of ncRNAs in human and mouse and to identify candidate genes for more detailed functional analysis. In addition to the ncRNA content, probes targeting mRNA content from RefSeq are also included, allowing discovery of coordinated expression with associated protein-coding genes. The result of these assays is a list of ncRNA genes (i.e. SEQ ID NO 28-89) and maps of their sequence boundaries. We have profiled total RNA isolated from melanocytes, keratinocytes, normal human skin, melanoma cell lines and melanoma patient samples to identify differentially expressed ncRNAs in cell lines and tissues. ncRNAs expression in all tested samples were compared to either melanocytes or normal skin. We have identified a group of ncRNAs that are specific for (a) melanocytes (b) Keratinocytes (c) Melanoma cell lines (d) Melanoma patients. […] Probe DNA sequences for this array include: AF086032 (SEQ ID NO 107) […] BC071821 (SEQ ID NO 108) […] C AK130193 (SEQ ID NO 109) […] AL109719 (SEQ ID NO 110) […] AF085888 (SEQ ID NO 111) […] T BC033879 (SEQ ID NO 112) […] AA AK024556 (SEQ ID NO 113) […] Probe nomenclature is standard genebank IDs given by NCBI and other organizations.
Keratinocytes specific signatures were subtracted and resultant ncRNAs were validated by qRT-PCR and Northern blots. Results point out the presence of a group of melanoma specific ncRNAs (i.e. SEQ ID NO 28-89).

Substance | ncRNA array expression, patient 2 | ncRNA array expression, patient 3 | ncRNA array expression, patient 4 | ncRNA array expression, patient 5 | ncRNA array expression, patient 6 | ncRNA array expression, patient 7 | ncRNA array expression, patient 8 | ncRNA array expression, patient 9 | ncRNA array expression, patient 10 | ncRNA array expression, patient 19 | ncRNA array expression, patient 20 | ncRNA array expression, patient 21 | ncRNA array expression, patient 22 | ncRNA array expression, patient 23 | ncRNA array expression, patient 24 | ncRNA array expression, patient 25 | ncRNA array expression, patient 26 | ncRNA array expression, patient 27 | ncRNA array expression, patient 28 | ncRNA array expression, patient 29 | further results
SEQ ID NO 43 (CTTAATCCACATTTGTTTTGAATTTTTCTGATTCCTATAGTACCATACTCTGATGCCTAT; listed as DNA, chemistry not given here; listed as Homo sapiens) | −1.3 | −1.272 | −1.462 | −1.269 | −1.488 | −1.541 | −1.511 | −1.226 | −1.371 | −1.531 | −1.239 | −1.321 | −1.451 | −1.442 | −1.2517 | −1.544 | −1.396 | −1.339 | −1.387 | −1.366 | ncRNA array expression, patient 30: −0.1449
SEQ ID NO 70 (AGTTATAGAGGAGGCTCAGGAGGATCTGGGGAAACGGGACCAGAGGGTAAGATGGGTTAT; listed as DNA, chemistry not given here; listed as Homo sapiens) | −1.553 | −1.673 | −1.217 | −1.521 | −1.483 | −1.751 | −2.182 | −1.366 | −0.6931 | −1.792 | −1.615 | −1.1 | −1.351 | −0.7876 | −1.593 | −1.473 | −1.495 | −1.848 | −1.549 | −1.625 | ncRNA array expression, patient 30: −0.6666
SEQ ID NO 69 (AGAGTTCGCACTGGGAAGAGTTAAAAAATAAACATTTACAAGGACGAGGAAAGCGGCCCC; listed as DNA, chemistry not given here; listed as Homo sapiens) | −1.697 | −1.8068 | −1.369 | −1.797 | −0.5526 | −1.8141 | −1.777 | −1.618 | −1.696 | −0.9749 | −1.422 | −1.5966 | −0.8782 | −0.2153 | −1.796 | −1.178 | −1.015 | −0.7594 | −1.693 | −1.645 | ncRNA array expression, patient 30: 0.8457
SEQ ID NO 39 (TGATCCTGTAAATCATGTTTTTGTTTATTCCCCAACACTAACCTCACTCCTTTACTATTC; listed as DNA, chemistry not given here; listed as Homo sapiens) | −1.04 | −0.7852 | −1.149 | −1.017 | −0.9404 | −1.086 | −0.9282 | −1.306 | −1.237 | −0.6006 | −1.263 | −1.232 | −0.301 | −0.164 | −1.204 | −1.66 | −1.776 | −1.287 | −1.448 | −1.374 | ncRNA array expression, patient 30: 0.02356
SEQ ID NO 76 (TGTTTCTAATGCATACTGTGAAAGGAAAAAAAATCACAGTTATCCACCTTCTCAGGGCCT; listed as DNA, chemistry not given here; listed as Homo sapiens) | −1.682 | −1.051 | −1.297 | −1.036 | 0.3953 | −1.741 | −1.681 | −1.284 | −0.6169 | −0.775 | −1.184 | −1.216 | −0.05441 | 0.7328 | −1.262 | −1.549 | −1.597 | −1.555 | −1.598 | −1.765 | ncRNA array expression, patient 30: 0.4068
